“Also recorded” adds a separate entry of the source.
Assays:
[1] = photostability under 635 nm laser irradiation; format: physicochemical; settings: 30 min, 20 mW/cm^2, FIG. 9
Experimental: FIG. 9 is a comparison diagram of photostabilities of the hypocrellin derivative prepared in the present invention and a commercial photosensitizer. […] However, in the same condition, after being irradiated with a 635 nm laser for 30 min at a light intensity of 20 mW/cm^2, maximum absorption performance of the commercial porphin photosensitizer Ce6 is decreased by 30% (curve c); and an absorption spectrum of the commercial hematoporphyrin photosensitizer HpD is decreased more, reaching about 50% (curve d). Therefore, in the same condition, the hypocrellin derivative prepared in the present invention has a better photostability than the commercial photosensitizers.

[2] = singlet oxygen efficiency test, reference rose bengal; format: physicochemical; settings: for singlet oxygen efficiencies: comparison with reference rose bengal RB, FIG. 7
[3] = absorption spectrum (maximum absorption wavelength, molar extinction coefficient); format: physicochemical
singlet oxygen in a cell = experiment: detection of singlet oxygen in a cell with fluorescence probe DCFH-DA; format: cell-based; settings: co-incubation with DCFH-DA, irradiation time to 60 s, FIG. 11
Source text: DCFH-DA is used to detect singlet oxygen in a cell.

Hela cells [4] = experiment: photo-cytotoxicity experiment (MTT, 635 nm laser); format: cell-based
Experimental: Photo-cytotoxicity experiment on cell: cultured Hela cells were digested and pipetted with 0.25% trypsin and to prepare a single-cell suspension, the number of cells was adjusted to about 2×10^4 per milliliter, and 200 uL of the suspension was seeded in a well of a 96-well culture plate, which is placed in a 37° C. incubator containing 5% CO2 for cultivation. After the cells adhere to the wall, a supernatant culture solution was discarded, and photosensitizers of different concentrations, that is, the hematoporphyrin derivative HpD, the hypocrellin B HB, or HB-1c-PEG6 synthesized in example 3, were added in a strictly lucifugous condition in accordance with experimental designs, and the culture plate was placed in the 37° C. incubator containing 5% CO2 for further cultivation and incubation for 1 hour. Then, a semiconductor laser with a wavelength of 635 nm was used for irradiation, a power density was adjusted to 20 mW/cm^2, light beams were evenly and vertically applied onto the 96-well culture plate, and an irradiation time was 1000 S. In addition, each 96-well culture plate is provided with a blank group, and 6 holes were provided for in each condition. After irradiation, the culture plate was placed in the 37° C. incubator containing 5% CO2 for further cultivation and incubation for 24 hours, and then a cellular survival rate was measured. The cellular survival rate was measured by means of the MTT method. 20 uL of MTT was added to each well, wherein the MTT is MTT prepared with PBS and having a concentration of 5 mg/ml. The culture plate was placed in the 37° C. incubator containing 5% CO2 for further cultivation for 4 hours, after which the cultivation was terminated. A supernatant in the well was extracted and discarded carefully. Then, 150 uL of dimethyl sulfoxide (DMSO) was added to each well, and the culture plate was shaken by using a micro shaker for 10 minutes to fully dissolve a purple crystal substance. A wavelength of 570 nm was selected to measure an optical density value (i.e., OD value) of each well on a microplate reader, and the cellular survival rate was calculated in accordance with the following formula: cellular survival rate=OD value of an experimental group/OD value of a blank group×100%.

Hela cells [5] = experiment: dark cytotoxicity experiment (MTT); settings: for cytotoxicity when not exposed to light: dark
Experimental: Dark cytotoxicity experiment: cultured Hela cells were digested with 0.25% trypsin and pipetted to prepare a single-cell suspension, the number of cells was adjusted to about 2×10^4 per milliliter, and 200 uL of the suspension was seeded in a well of a 96-well culture plate, which is placed in a 37° C. incubator containing 5% CO2 for cultivation. […] A cellular survival rate was measured by means of the MTT method. 20 uL of MTT was added to each well, wherein the MTT is MTT prepared with PBS and having a concentration of 5 mg/ml. The culture plate was placed in the 37° C. incubator containing 5% CO2 for further cultivation for 4 hours, after which the cultivation was terminated. A supernatant in the well was extracted and discarded carefully. Then, 150 uL of dimethyl sulfoxide was added to each well, and the culture plate was shaken by using a micro shaker for 10 minutes to fully dissolve a purple crystal substance. A wavelength of 570 nm was selected to measure an optical density value (i.e., OD value) of each well on a microplate reader, and the cellular survival rate was calculated in accordance with the following formula: cellular survival rate=OD value of an experimental group/OD value of a blank group×100%.

[6] = water solubility in normal saline; format: physicochemical; settings: per milliliter of normal saline
Experimental: Most of photosensitizer molecules disclosed in this patent contain a large number of hydrophilic groups, such as a polyethylene glycol chain, a quaternary ammonium salt, a carboxyl group, and a sulfonic acid group, etc., making the photosensitizer molecules have very high water solubility in a physiological condition; and experiments indicate that each milliliter of normal saline or glucose injection can dissolve more than 5 mg of such the photosensitizer molecules, presenting excellent water solubility. Therefore, the photosensitive drug can be well transported in blood vessels during intravenous injection, without causing a vascular blockage. HB-1c-C2-N+ prepared in example 4 contains two quaternary ammonium salts, and each milliliter of normal saline can dissolve more than 20 mg of photosensitizer molecules; HC-1c-PEG6 prepared in example 6 contains two 6-PEG chains, and each milliliter of normal saline can dissolve more than 20 mg of photosensitizer molecules; HB-8c prepared in example 19 contains two carboxyl groups, and each milliliter of normal saline can dissolve more than 10 mg of photosensitizer molecules; HB-13c prepared in example 35 contains two carboxyl groups, and each milliliter of normal saline can dissolve more than 10 mg of photosensitizer molecules; and HB-13c-PEG8 prepared in example 37 contains two 8-PEG chains, and each milliliter of normal saline can dissolve more than 20 mg of photosensitizer molecules. These photosensitizer molecules all present excellent water solubility.

[7] = pH stability of absorption spectrum; format: physicochemical; settings: pH range of 6.2-8.0, FIG. 8
Source text: Therefore, the hypocrellin derivative prepared in the present invention has a better pH stability than the commercial hematoporphyrin HpD in the pH range of 6.2-8.0.

[8] = reactive oxygen measurement with singlet oxygen and superoxide radical scavengers; format: physicochemical; settings: FIG. 6(a), 6(b)
Source text: FIGS. 7(a)-7(d) show efficiency curves of measuring singlet oxygen of HB-1c and HC-1c. From the comparison with a reference rose bengal RB, it can be seen that the singlet oxygen efficiencies of HB-1c and HC-1c are respectively 0.40 and 0.38.

Structure (SMILES) | decrease of absorption intensity at the maximum wavelength [1] | singlet oxygen yield [2] | maximum absorption wavelength [3] | molar extinction coefficient [3] | also measured
COCCOCCOCCOCCOCCOCCOCCC(=O)OCCNc1c2c3c4c(c(OC)c(=O)c5c(NCCOC(=O)CCOCCOCCOCCOCCOCCOCCOC)cc(OC)c(c6c(OC)cc(O)c(c1=O)c63)c54)CC(C)=C2 [HC-2d-PEG6] | less than 10% | 32% | 624 nm | 31,500 M^−1cm^−1 | –
COCCOCCOCCOCCOCCOCCOCCC(=O)OCCOCCNc1c2c3c4c(c(OC)c(=O)c5c(O)cc(OC)c(c6c(OC)cc(NCCOCCOC(=O)CCOCCOCCOCCOCCOCCOCCOC)c(c1=O)c63)c54)CC(C)=C2 [HC-1c-PEG6] | – | 34% | 628 nm | 33,500 M^−1cm^−1 | singlet oxygen in the cell (DCFH-DA green fluorescence) (singlet oxygen in a cell): green fluorescence intensity is gradually increased; Hela cells killed (Hela cells [4]; 140 nM, 635 nm light, FIG. 13(b)): more than 90%; cytotoxicity when not exposed to light (Hela cells [5]): almost no cytotoxicity; amount dissolved by each milliliter of normal saline [6]: more than 20 mg; pH stability, change in absorption spectrum [7]: good pH stability; also recorded: no obvious change
COc1c2c3c4c(c(NCCO)c(=O)c5c(NCCO)cc(OC)c(c6c(OC)cc(O)c(c1=O)c63)c54)C=C(C)C2 [HC-2c] | less than 10% | 40% | 636 nm | 31,000 M^−1cm^−1 | –
C=Cc1c(C)c2cc3nc(c(CC(=O)O)c4[nH]c(cc5nc(cc1[nH]2)C(C)=C5CC)c(C)c4C(=O)O)[C@@H](CCC(=O)O)[C@@H]3C [Ce6, reference compound] | 30% | – | 650 nm | less than 20000 M^−1cm^−1 | –
COc1c2c3c4c(c(NCCOCCO)c(=O)c5c(NCCOCCO)cc(OC)c(c6c(OC)cc(O)c(c1=O)c63)c54)C=C(C)C2 [HC-1c] | – | 38% | – | 30,000 M^−1cm^−1 | singlet oxygen efficiencies [2]: 0.38; pH stability, change in absorption spectrum [7]: no obvious change
COCCOCCOCCOCCOCCOCCOC(=O)CCCNc1c2c3c4c(c(OC)c(=O)c5c(O)cc(OC)c(c6c(OC)cc(NCCCC(=O)OCCOCCOCCOCCOCCOCCOC)c(c1=O)c63)c54)CC(C)=C2 [HC-8c-PEG6] | – | 36% | 632 nm | 31,500 M^−1cm^−1 | Hela cells killed (Hela cells [4]; 240 nM, 635 nm light, FIG. 15(b)): more than 90%; cytotoxicity when not exposed to light (Hela cells [5]): almost no cytotoxicity
COCCOCCOCCOCCOCCOCCOCCC(=O)OCCOCCNc1c2c3c4c(c(OC)c(=O)c5c(O)cc(OC)c(c6c(OC)cc(NCCOCCOC(=O)CCOCCOCCOCCOCCOCCOCCOC)c(c1=O)c63)c54)C(C(C)=O)C(C)=C2 (centres unmarked) [HB-1c-PEG6] | – | 34% | 628 nm | 34,500 M^−1cm^−1 | Hela cells killed (Hela cells [4]; 160 nM, 635 nm laser, FIG. 12(b)): more than 90%; cytotoxicity (dark toxicity) (Hela cells [5]; 10 μM, incubated half hour, FIG. 12(a)): basically non-cytotoxic
COc1c2c3c4c(c(NCCOCCO)c(=O)c5c(NCCOCCO)cc(OC)c(c6c(OC)cc(O)c(c1=O)c63)c54)C=C(C)C2C(C)=O (centres unmarked) [HB-1c] | – | – | – | – | singlet oxygen efficiencies [2]: 0.40; photosensitive reactive species produced [8]: primarily producing singlet oxygen
